# Data published in patent US20060052435A1, “Selective dopamin d3 receptor agonists for the treatment of sexual dysfunction” (priority 2001, published 2006).
# Test system: conscious rats
# Test: conscious rat models of copulatory behaviour
# Details: in vivo
# Method: All studies of sexual behaviour must be performed on adult rats (˜12 weeks of age/200 g weight). Sexual behaviour tests are performed under red light during the dark phase of the light/dark cycle starting at 2 h after lights off and videotaped for further analysis (observer presence can unfavourably alter sexual behaviour).
# Males (N=8-10) are placed in a clear aquarium (or home cage) for at least 15 min acclimation period. An estrous female is introduced into the mating arena. The following information is recorded during the 45 min test: latency to begin mounting behaviour, latency to first intromission, latency to first ejaculation (calculated from first intromission), number of intromissions to ejaculation, number of mounts until ejaculation, and the number of ejaculations during the test period. Males are observed during a single 45 min test with an estrous WT female.
# The rats are presented with a receptive female at […], i.e. every third day (having 2 clear days between presentations), until completing at least 6 days of baseline determination. By then, vigorous behaviour should be expected. Rats that display sluggish copulatory behaviour are used as a model of HSDD.
# For all the sexual behaviour tests, the males are placed in an observation arena (50-60 cm diameter for rats). 3 to 4 minutes after placing the male in the arena, a receptive female (ovariectomised, bearing a 7 mm silastic implant of oestradiol benzoate gives the best results without complications) is introduced to the arena and the following parameters noted:
# Mount Latency: time (in seconds) taken between introduction of female and first mount. A maximum time of 15 minutes (900 seconds) is allowed, and the test terminated if no mounts are recorded within that time. Mount latency is related to sexual drive/desire.
# Intromission Latency: time (in seconds) taken between introduction of female and first intromission. A maximum time of 15 minutes (900 seconds) is allowed, and the test terminated if no intromissions are recorded within that time. Intromission latency is related to sexual drive/desire.
# Copulatory effectsiveness:—no of intromissions/(no of mounts+intromissions). This acts as a measure of erectile function.
# The test, in the rat, is carried out in a circular arena of 90 cm diameter surrounded by a 30 cm high wall (these dimensions would need to be adapted for mice). Two small cages with wire-mesh front (15×15 cm) are fixed into the wall such that the front of the cage is “flush” with the wall and the 2 cages are opposite each other. […] The difference in the percentage of time spent investigating male minus female is calculated, out of the total time spent investigating stimuli animals. […] Female rats would then be used intact and tested in late proestrous, as determined by vaginal smears. […]
smiles,measurement,value
"CCCN1CCO[C@H](c2cccc(O)c2)C1.Cl [Example 8, R-(−)-3-(4-Propylmorpholin-2-yl)phenol hydrochloride]",copulatory behaviour and copulatory effectiveness in male rats,beneficially enhances
same,mount latency and intromission latency in sluggish males (model of HSDD),reduces
same,proceptive and receptive behaviours in female rats,beneficially enhances
same,sexual desire in oestrogen primed ovarectomised animals (model of HSDD),restores
